Key:
breast cancer [1] = settings: women whose breast cancer has progressed following tamoxifen therapy; cited from earlier work
estrogen receptor (ER) = settings: relative to oestradiol equivalent of 1.0; cited from earlier work
breast cancer [2] = experiment: treatment of breast cancer patients who failed previous aromatase inhibitor treatment; format: in vivo, human; settings: patients previously treated with an aromatase inhibitor (optionally also a SERM) and failed
[3] = system: MCF-7 human breast cancer cells; settings: MCF-7 cells, cited from earlier work; for reduction in MCF-7 cell numbers (inhibition): same conditions for fulvestrant and tamoxifen (tamoxifen: maximum)
MCF-7 tumours = settings: cited from earlier work

Row | Molecule | efficacy in phase II trial (breast cancer [1]) | relative binding affinity for the estrogen receptor (ER) (estrogen receptor (ER)) | sensitivity of breast cancer to further treatment (breast cancer [2]) | IC50 ([3]; read-out: IC50, inhibitory effect on the growth of MCF-7 human breast cancer cells) | reduction in MCF-7 cell numbers (inhibition) [3] | duration of growth suppression of established MCF-7 tumours versus tamoxifen (MCF-7 tumours; established MCF-7 tumours, compared with tamoxifen treatment) | delay of tumourgenesis versus tamoxifen-treated mice (MCF-7 tumours; mice) | sensitivity of tamoxifen-resistant MCF-7 tumours to treatment (MCF-7 tumours; tumours grown out after long-term treatment with tamoxifen)
1 | C[C@]12CC[C@@H]3c4ccc(O)cc4C[C@@H](CCCCCCCCC[S+]([O-])CCCC(F)(F)C(F)(F)F)[C@H]3[C@@H]1CC[C@@H]2O (stereo partly drawn) [fulvestrant, 7-alpha-[9-(4,4,5,5,5pentafluoropentylsulphiny)nonyl]-estra-1,3,5(10)-triene-3, 17βdiol] | demonstrated efficacy | 0.89 | sensitive to further treatment by fulvestrant | 0.29 nM | 80% | twice as long | delayed to a greater extent | remain sensitive to fulvestrant treatment
2 | CC/C(=C(\c1ccccc1)c1ccc(OCCN(C)C)cc1)c1ccccc1 [tamoxifen] |  |  |  |  | ≤ 50% |  |  | 
3 | oestradiol |  | 1.0 |  |  |  |  |  | 

— patent US20110183949A1, “Use of Fulvestrant in the Treatment of Resistant Breast Cancer” (priority 2000, published 2011)
